The structures appear in SMILES notation. pIC50: −log10 of the molar value. Bounds are passed on as bounds.

The experiment deals with T1, Prostaglandin G/H synthase 1 (Ovis aries, UniProt P05979).
T1 sequence (P05979 whole entry): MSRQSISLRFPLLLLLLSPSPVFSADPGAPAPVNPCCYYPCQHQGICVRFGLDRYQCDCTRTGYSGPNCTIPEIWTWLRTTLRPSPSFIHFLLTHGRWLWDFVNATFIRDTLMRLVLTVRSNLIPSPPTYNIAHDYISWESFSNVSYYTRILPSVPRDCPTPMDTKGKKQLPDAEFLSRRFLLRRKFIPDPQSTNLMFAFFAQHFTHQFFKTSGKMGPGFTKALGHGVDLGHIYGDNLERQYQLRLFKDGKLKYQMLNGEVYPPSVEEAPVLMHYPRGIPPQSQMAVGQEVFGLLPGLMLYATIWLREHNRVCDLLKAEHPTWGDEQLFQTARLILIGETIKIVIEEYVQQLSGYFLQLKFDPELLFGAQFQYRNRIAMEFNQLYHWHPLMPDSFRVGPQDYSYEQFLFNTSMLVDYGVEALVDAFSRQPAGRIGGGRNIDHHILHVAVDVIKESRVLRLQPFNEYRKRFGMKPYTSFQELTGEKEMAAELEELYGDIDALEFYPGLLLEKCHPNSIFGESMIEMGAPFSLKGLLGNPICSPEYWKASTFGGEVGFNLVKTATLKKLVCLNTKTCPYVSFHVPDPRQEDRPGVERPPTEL
The experiment in a line: Inhibition of ovine COX1 by enzyme immuno assay.

A word on the pIC50: it is the IC50 on a negative log10 scale, so that one unit is a factor of ten. Read a high pIC50 as a low IC50. `O=C1Nc2ccc(F)cc2C12CC(c1ccc(Br)cc1)N=N2` (configuration not stated) gave a pIC50 of under 4.30.

Molecule `Cc1ccc(C2CC3(N=N2)C(=O)Nc2ccc(F)cc23)cc1` (configuration not stated) had a pIC50 of under 4.30.

Values taken from BindingDB's records for doi:10.1016/j.bmc.2012.03.044 (University of Mansoura, 2012).
